What was measured:
[1] = system: HEK293 reporter cell line; test: CRISPR/Cas9-based HDR assay (wtCas9 RNP, ssOligo donor, EGFP positive cells by FACS); assay type: cell-based, human; details: for HDR efficiency in the initial screen with wtCas9: fold change compared to Cas9 alone, ≥20% increase (fold change ≥1.2) = positive influencer; for HDR efficiency, single small molecule (FIG. 4): Example 4, first set of experiments, compared to no compound; for optimal concentration selected for further experiments: from the HDR dose dependency experiment; for dose dependency of HDR efficiency (FIG. 3): three concentrations (low, medium, high) per inhibitor; for concentration with the highest HDR efficiency: tested at 5, 10, 20 μM
Experimental: More specifically, an HDR assay using a HEK reporter cell line containing truncated EGFP may be used. These cells may be transfected with a transfection complex containing the CRISPR endonuclease and a donor sequence. Cas9 RNPs may be prepared by following the manufacturers' guidelines. The transfection complex may be prepared by adding Cas9 RNP or Cas9 nickase RNP, along with ssOligo donor and lipofectamine 2000 in Optimem. Reagents should be mixed well and incubated for 20 mins. After 20 mins, 50 μl of transfection complex (at an optimal concentration—see the Examples herein) may be transferred in a 96 well plate and 50 μl HEK293 reporter cell line suspension (9×10^5 cells/ml) added followed by 50 μl of cell culture medium containing appropriate concentration(s) of inhibitor(s). Cells may be incubated at 37° C. in a CO2 incubator for 24 hours and then inhibitor-containing media should be replaced with fresh media without inhibitor. Cells are then further incubated for 48 hours. After 48 hours, cells may be trypsinized and resuspended in PBS containing 10% FBS. Samples may be run on FACS and the percentage of EGFP in the population measured. Presence of EGFP directly correlates with HDR efficiency.
To investigate whether a knock-in truncated in HEK293 reporter cell line could be corrected by homology dependent repair, a CRISPR/Cas9-based HDR assay was used. We used ssODN as a donor template to correct the EGFP sequence and to restore functionality as ssODNs are known to be more efficient compared to the double-stranded donor for HDR based DNA repair. Briefly, cells were transfected with a wtCas9 ribonucleoprotein complex along with an oligo donor for restoring EGFP functionality. Cells were analysed by FACS 72 hours post-transfection (FIGS. 2A and 2B).
To identify the small molecules which would increases the HDR efficiency, we carried out experiments using the engineered HEK293 reporter cell line, ss-donor and wtCas9 in the presence of the inhibitors identified in Example 2. Briefly, in vitro reconstituted wtCas9 RNP with gRNA-X1 was transfected into the cells along with ssOligo donor (50 nM) in presence of the inhibitors. Inhibitor containing media was replaced with fresh media after 24 hours and cells were further incubated for 48 hours. After 48 hours cells were trypsinized and resuspended in 10% FBS containing PBS and analysed by FACS.
To understand whether increase in HDR is related to dose response, we carried out the HDR assay using three different concentrations of selected inhibitors as shown in the table below.
To investigate whether HDR efficiency would increase further by using the top hit small molecule combinations, we performed experiments using small molecule combinations for wtCas9. These combinations were selected using Design of Experiment (DoE) software. These combination experiments were carried out in 2 sets: the first set was performed in the absence of NU7441 (a known HDR enhancer); and the second set was performed in the presence of NU7441. […] In the second set of experiments, in the presence of NU7441, further increases (˜2fold) in HDR efficiency were observed compared to no NU7441 (FIG. 4). […]

[2] = system: HEK reporter cell line; test: cell-viability assay using alamar blue reagent; assay type: cell-based, human; details: 72 hours
Experimental: To investigate the effect of this library on HDR efficiency and to identify novel molecules which would increase the HDR mediated gene editing efficiency, first we carried out a cell-viability assay using the HEK reporter cell line and alamar blue reagent. The experiment was performed to rule out any toxicity associated with the small molecule library. Briefly, 3 different concentration of inhibitors (0.1 μM, 1 μM and 10 μM) were added in the cells in a 96 well plate format and plates were incubated for 72 hours. After 72 hours, the media were replaced with alamar blue containing media and the plates were further incubated for 3 hours and then read on a Fluorstar omega plate reader. The table gives the results obtained with the subsequently-selected inhibitors, together with a range of other potential inhibitors.

| SMILES | HDR efficiency in the initial screen with wtCas9 [1] | % survival ([2]; 0.1 μM inhibitor) | % survival ([2]; 1 μM inhibitor) | % survival ([2]; 10 μM inhibitor) | HDR efficiency, single small molecule (FIG. 4) ([1]; wtCas9) | further increase in HDR efficiency in the presence of NU7441 compared to no NU7441 (FIG. 4) ([1]; Example 4, second set of experiments, wtCas9) | HDR efficiency at high concentration (FIG. 3) ([1]; concentration of 2 μM, wtCas9) | optimal concentration selected for further experiments ([1]; wtCas9) | dose dependency of HDR efficiency (FIG. 3) ([1]; wtCas9) | HDR efficiency at high concentration (FIG. 3) ([1]; concentration of 0.2 μM, wtCas9) | concentration with the highest HDR efficiency ([1]; wtCas9) |
| --- | --- | --- | --- | --- | --- | --- | --- | --- | --- | --- | --- |
| O=c1cc(N2CCOCC2)oc2c1ccc1ccccc12 [NU7026] | increase the HDR efficiency | 100.08 ± 4.01% | 100.14 ± 4.13% | 83.17 ± 1.44% |  |  |  |  |  |  |  |
| O=c1cc(N2CCOCC2)oc2c(-c3cccc4c3sc3ccccc34)cccc12 [NU7441] | increase the HDR efficiency | 103.58 ± 4.44% | 88.88 ± 3.55% | 22.95 ± 0.98% | increase in HDR efficiency | ~2 fold | moderate increases | 1 µM | highest HDR efficiency |  |  |
| O=C(Nc1c[nH]nc1-c1nc2cc(CN3CCOCC3)ccc2[nH]1)NC1CC1 [AT9283] | increase the HDR efficiency | 81.49 ± 3.59% | 69.69 ± 1.2% | 7.1 ± 0.06% | increase in HDR efficiency |  |  | 0.05 µM |  | moderated decreases in HDR efficiency |  |
| O=C1NC(=O)/C(=C/c2cccc(C(F)(F)F)c2)S1 [SMI-4a] | increase the HDR efficiency | 105.2 ± 0.07% | 103.18 ± 5.38% | 99.85 ± 1.22% | increase in HDR efficiency |  |  | 20 µM | dose-dependent increases in HDR efficiency |  | 20 µM |
| CCS(=O)(=O)c1cccc(-c2cc(C(=O)NC3CCN(C)CC3)c(C)c3[nH]c4ncc(C)cc4c23)c1 [TAK-901] |  | 88.9 ± 1.18% | 36.24 ± 0.88% | 5.65 ± 0.08% |  |  |  |  |  |  |  |
| Cc1cc(CN2CCN(c3c(Br)cnc4nc(-c5ccc(N6CCN(C)CC6)cc5)[nH]c34)CC2)no1 [CCT137690] |  | 105.48 ± 3.94% | 63.37 ± 2.12% | −0.08 ± 0.1% |  |  |  |  |  |  |  |
| O=C([C@H](Cc1cccc(C(F)(F)F)c1)NS(=O)(=O)c1cc(F)c2c(c1)CCNC2)N1CCCC1 [S-PFI-2] | increase the HDR efficiency | 99.98 ± 3.25% | 115.11 ± 2.47% | 94.25 ± 8.54% | increase in HDR efficiency |  |  | 20 µM | dose-dependent increases in HDR efficiency |  | 20 µM |
